Legend:
[1] = tested on: BxPC3 cells; assay: Prodrug safety dose-response cell viability (PrestoBlue), BxPC3; assay type: cell-based; conditions: Homo sapiens, BXPC-3, 120 h, 5 days, no catalyst
Description: (§1) These cell lines were selected as these are primary malignancies against which the parental drugs are currently prescribed.
(§2) The toxicities of each active agent and prodrugs were compared by performing dose-response studies. […] Cell viability was analysed by fluoresce intensity (λex=540 nm; λem=590 nm) after 60-90 min incubation with PrestoBlue™ Reagent (Life Technologies).

[2] = tested on: HCT116 cells; assay: Prodrug safety dose-response cell viability (PrestoBlue), HCT116; assay type: cell-based; conditions: Homo sapiens, HCT-116, 120 h, 5 days, no catalyst
Description: as §1, §2

[3] = tested on: BxPC3 cells; assay: BOOM conversion: prodrug + Pd0-resins in cell culture, cell viability, BxPC3; assay type: cell-based, human; conditions: Pd0-resin 1 mg/mL, 3 μM prodrug
Description: (§3) Cell viabilities for each prodrug provided as a combination with palladium is presented in FIG. 16 in the right of each set of two bars. Data for prodrug in the absence of palladium catalyst is also provided (the left bar of each set of two bars) for comparison along with negative controls (from left to right: DMSO, Pd^0 and 5FU). Cells were incubated in tissue culture media containing 0.1% (v/v) DMSO and: Pd^0-resins (1 mg/mL, negative control); 3 μM (for BxPC3 cells) or 30 μM (for HCT116 cells) of prodrug (negative control); and Pd^0-resins (1 mg/mL)+3 μM (BxPC3) or 30 μM (HCT116) of each prodrug (BOOM reaction assay). […]
(§4) Following 5 days treatment, cells were incubated with PrestoBlue™ Cell Viability Reagent (Life Technologies) for 90 min. Fluorescence intensity values were related to the untreated cells (100% cell viability). […]
(§5) The toxigenic effect as a result of in situ generation of parental drug in cell culture was determined by incubating all cells in tissue culture media containing 0.1% (v/v) DMSO and a) Pd^0, Au, or Pd/Au-resin (1 mg/mL for all cells tested, negative control); b) prodrug (negative control); or c) Pd^0, Au, or Pd/Au-resin (1 mg/mL for all cells)+prodrug (reaction assay). […]
(§6) A dose response study was performed for each cell line keeping the quantity of Pd^0 resin constant (0.8 mg/mL for U87G and 1 mg/mL for the rest of cell lines). […]

[4] = tested on: HCT116 cells; assay: BOOM conversion: prodrug + Pd0-resins in cell culture, cell viability, HCT116; assay type: cell-based, human; conditions: Pd0-resin 1 mg/mL, 30 μM prodrug
Description: as §3, §4, §5, §6

[5] = tested on: A549 cells; assay: Prodrug safety dose-response cell viability (PrestoBlue), A549; assay type: cell-based; conditions: Homo sapiens, 120 h, 5 days, no catalyst
Description: as §1, §2

[6] = tested on: T98 cells; assay: Prodrug safety dose-response cell viability (PrestoBlue), T98; assay type: cell-based; conditions: Homo sapiens, 120 h, 5 days, no catalyst
Description: as §1, §2

[7] = tested on: DU145 cells; assay: Prodrug safety dose-response cell viability (PrestoBlue), DU145; assay type: cell-based; conditions: Homo sapiens, DU-145, 120 h, 5 days, no catalyst
Description: as §1, §2

[8] = tested on: A2780 cells; assay: Prodrug safety dose-response cell viability (PrestoBlue), A2780; assay type: cell-based; conditions: Homo sapiens, 120 h, 5 days, no catalyst
Description: as §1, §2

[9] = tested on: U87G cells; assay: Prodrug safety dose-response cell viability (PrestoBlue), U87G; assay type: cell-based, human; conditions: Homo sapiens, 120 h, read-out: EC50 (cell viability)
Description: as §1, §2

[10] = tested on: U87G cells; assay: BOOM conversion: prodrug + Pd0-resins in cell culture, cell viability, U87G; assay type: cell-based, human; conditions: Pd0-resin, SN-38 prodrug
Description: Following 5 days treatment, cells were incubated with PrestoBlue™ Cell Viability Reagent (Life Technologies) for 60-90 min. Fluorescence intensity values were related to the untreated cells (100% cell viability). […] Cells incubated in 0.1% (v/v) DMSO in media were used as untreated cell control.
The toxigenic effect as a result of in situ generation of parental drug in cell culture was determined by incubating all cells in tissue culture media containing 0.1% (v/v) DMSO and a) Pd^0, Au, or Pd/Au-resin (1 mg/mL for all cells tested, negative control); b) prodrug (negative control); or c) Pd^0, Au, or Pd/Au-resin (1 mg/mL for all cells)+prodrug (reaction assay). Cells incubated in 0.1% (v/v) DMSO in media was used as an untreated cell reference standard (100% viability). A PrestoBlue® cell viability assay as described above was carried out and fluorescent intensities compared to the untreated cell control.
(§7) A dose response study was performed for each cell line keeping the quantity of Pd^0 resin constant (0.8 mg/mL for U87G and 1 mg/mL for the rest of cell lines). […] Fluorescence intensity values (detected using a PerkinElmer EnVision 2101 multilabel reader with excitation filter at 540 nm and emissions filter at 590 nm) were determined relative to the untreated cell control.

[11] = tested on: MiaPaCa2 cells; assay: Prodrug safety dose-response cell viability (PrestoBlue), MiaPaCa2; assay type: cell-based, human; conditions: relative to Gemcitabine
Description: as §1, §2

[12] = tested on: MiaPaCa2 cells; assay: BOOM conversion: prodrug + Pd0-resins in cell culture, cell viability, MiaPaCa2; assay type: cell-based, human
Description: Cell viabilities for each prodrug provided as a combination with palladium is presented in FIG. 10 in the right of each set of two bars. Data for prodrug in the absence of palladium catalyst is also provided (the left bar of each set of two bars) for comparison along with negative controls (from left to right: DMSO, Pd^0 and Gemcitabine). Cells were incubated in tissue culture media containing 0.1% (v/v) DMSO and: Pd^0-resins (1 mg/mL, negative control); 0.03 μM of each prodrug (negative control); and Pd^0-resins (1 mg/mL)+0.03 μM of each prodrug (BOOM reaction assay). Cells incubated in 0.1% (v/v) DMSO in media were used as untreated cell control.
Following 5 days treatment, cells were incubated with PrestoBlue™ Cell Viability Reagent (Life Technologies) for 90 min. Fluorescence intensity values were related to the untreated cells (100% cell viability). Data are provided in FIG. 11 for cells incubated in tissue culture media containing 0.1% (v/v) DMSO and: Pd^0-resins (1 mg/mL, negative control); 0.003-0.3 μM of pPOBC-Gem (negative control); 0.003-0.3 μM of Gemcitabine (positive control); and Pd^0-resin (1 mg/mL)+pPOBC-Gem (BOOM reaction assay). Cells incubated in 0.1% (v/v) DMSO in media were used as untreated cell control.
as §5, with “assay). Cells incubated in 0.1% (v/v) DMSO in media was used as an untreated cell reference standard (100% viability).” for “assay).”
as §7

With `O=c1[nH]cc(F)c(=O)[nH]1` [5FU, 5-fluorouracil, reference compound] the EC50 [1] was 140 nM and the EC50 [2] was 1500 nM.

`C#CCOc1ncc(F)c(OCC#C)n1` [Bis-Pro-5FU, 2,4-bispropargyl-5-fluorouracil] was tested, and the EC50 [1] was over 100000 nM, the EC50 [2] was over 100000 nM and the “toxigenic effect of prodrug + Pd0 resins” value [3] was “strong toxigenic effect”. The “toxigenic effect of prodrug + Pd0 resins” value [4] was “strong toxigenic effect”.

`COc1cccc2c1C(=O)c1c(O)c3c(c(O)c1C2=O)C[C@@](O)(C(=O)CO)C[C@@H]3O[C@H]1C[C@H](N)[C@H](O)[C@H](C)O1` [Doxorubicin, reference compound] showed an EC50 [5] of 105 nM, an EC50 [6] of 320 nM and an EC50 [7] of 23 nM.

`O=C(c1cc(Cc2n[nH]c(=O)c3ccccc23)ccc1F)N1CCN(C(=O)C2CC2)CC1` [Olaparib, reference compound] gave an EC50 [8] of 1870 nM.

In the case of `C#CCOc1nnc(Cc2ccc(F)c(C(=O)N3CCN(C(=O)C4CC4)CC3)c2)c2ccccc12` [Prop-Olap, 4-[(3-[(4-cyclopropylcarbonyl)piperazin-4-yl]carbonyl)-4-fluorophenyl]methyl-phthalazin-1-oxypropargyl], the EC50 [8] is reported as over 100000 nM.

With `C#CCOc1cccc(OCC#C)c1COc1ccc2nc3c(c(CC)c2c1)Cn1c-3cc2c(c1=O)COC(=O)[C@]2(O)CC` [di-oPOB-SN-38, (S)-9-((2,6-bis(prop-2-yn-1-yloxy)benzyl)oxy)-4,11-diethyl-4-hydroxy-1,12-dihydro-14H-pyrano[3′,4′:6,7]indolizino[1,2-b]quinoline-3,14(4H)-dione] the EC50 [9] was 3150 nM and the “toxigenic effect of prodrug + Pd0 resins” value [10] was “strong toxigenic effect”.

`C#CCOc1ccc(COC(=O)Nc2ccn(C3OC(CO)C(O)C3(F)F)c(=O)n2)cc1` (stereo not shown) [pPOBC-Gem, 4-proparglyoxybenzylcarbamoyl Gemcitabine] was tested, and the “reduction in the cytotoxic effect relative the parent active agent” value [11] was 27 fold, the EC50 ([12]; Homo sapiens, MIA PaCa-2, 120 h, prodrug in combination with Pd0-resins 1 mg/mL, 5 days, read-out: EC50, prodrug + Pd-resins) was 226 nM and the “toxigenic effect of prodrug + Pd0 resins” value ([12]; Pd0-resin 1 mg/mL, 0.03 μM Gemcitabine prodrugs) was “strong toxigenic effect”.

From patent US20200289554A1, “BIOORTHOGONAL COMPOUNDS COMPRISING A PROPARGYL GROUP FOR TREATING CANCER” (THE UNIVERSITY COURT OF THE UNIVERSITY OF EDINBURGH, priority 2016, published 2020)
